Laboratory results from ChEMBL document CHEMBL4325853, “Design, synthesis and antibacterial evaluation of 2,4-disubstituted-6-thiophenyl-pyrimidines” (Eur J Med Chem, 2019).
Values after ≈ are worked out from the molar mass of the structure shown.

How the values were obtained:
Type in all cases: functional
[1] = test system: Staphylococcus aureus; assay: Antibacterial activity against methicillin-resistant Staphylococcus aureus isolate 6515 after 18 hrs by broth microdilution method; conditions: isolate 6515, 18 h
[2] = test system: Enterococcus faecalis; assay: Antibacterial activity against Enterococcus faecalis ATCC 29212 after 18 hrs by broth microdilution method; conditions: ATCC 29212, 18 h
[3] = test system: Staphylococcus aureus; assay: Antibacterial activity against methicillin-resistant Staphylococcus aureus isolate 4023 after 18 hrs by broth microdilution method; conditions: isolate 4023, 18 h
[4] = test system: Staphylococcus aureus; assay: Antibacterial activity against methicillin-resistant Staphylococcus aureus isolate 7587 after 18 hrs by broth microdilution method; conditions: isolate 7587, 18 h
[5] = test system: Staphylococcus aureus; assay: Antibacterial activity against methicillin-resistant Staphylococcus aureus isolate 3096 after 18 hrs by broth microdilution method; conditions: isolate 3096, 18 h
[6] = test system: Staphylococcus aureus; assay: Ratio of MBC to MIC for methicillin-resistant Staphylococcus aureus ATCC 43300
[7] = test system: Staphylococcus aureus; assay: Antibacterial activity against methicillin-resistant Staphylococcus aureus isolate 5395 after 18 hrs by broth microdilution method; conditions: isolate 5395, 18 h
[8] = test system: Staphylococcus aureus; assay: Potency index, ratio of methicillin MIC to test compound MIC for methicillin-resistant Staphylococcus aureus ATCC BAA41
[9] = test system: Staphylococcus aureus; assay: Antibacterial activity against methicillin-resistant Staphylococcus aureus isolate 5426 after 18 hrs by broth microdilution method; conditions: isolate 5426, 18 h
[10] = test system: Staphylococcus aureus; assay: Antibacterial activity against methicillin-resistant Staphylococcus aureus isolate 7864 after 18 hrs by broth microdilution method; conditions: isolate 7864, 18 h
[11] = test system: Staphylococcus aureus; assay: Antibacterial activity against methicillin-resistant Staphylococcus aureus isolate 5056 after 18 hrs by broth microdilution method; conditions: isolate 5056, 18 h
[12] = test system: Enterococcus faecalis; assay: Bactericidal activity against vancomycin-resistant Enterococcus faecalis ATCC 700221 after 18 hrs by broth microdilution method; conditions: ATCC 700221, 18 h
[13] = test system: Staphylococcus aureus; assay: Antibacterial activity against methicillin-resistant Staphylococcus aureus isolate 5035 after 18 hrs by broth microdilution method; conditions: isolate 5035, 18 h
[14] = test system: Staphylococcus aureus; assay: Antibacterial activity against methicillin-resistant Staphylococcus aureus isolate 7717 after 18 hrs by broth microdilution method; conditions: isolate 7717, 18 h
[15] = test system: Staphylococcus aureus; assay: Antibacterial activity against methicillin-resistant Staphylococcus aureus isolate 3123 after 18 hrs by broth microdilution method; conditions: isolate 3123, 18 h
[16] = test system: Staphylococcus aureus; assay: Antibacterial activity against methicillin-resistant Staphylococcus aureus ATCC BAA1720 after 18 hrs by broth microdilution method; conditions: ATCC BAA1720, 18 h
[17] = test system: Staphylococcus aureus; assay: Potency index, ratio of methicillin MIC to test compound MIC for methicillin-resistant Staphylococcus aureus ATCC BAA1720
[18] = test system: Staphylococcus epidermidis; assay: Antibacterial activity against Staphylococcus epidermidis ATCC 12228 after 18 hrs by broth microdilution method; conditions: ATCC 12228, 18 h
[19] = test system: Staphylococcus aureus; assay: Antibacterial activity against methicillin-resistant Staphylococcus aureus isolate 7536 after 18 hrs by broth microdilution method; conditions: isolate 7536, 18 h
[20] = test system: Staphylococcus aureus; assay: Antibacterial activity against methicillin-resistant Staphylococcus aureus isolate 4548 after 18 hrs by broth microdilution method; conditions: isolate 4548, 18 h
[21] = test system: Staphylococcus aureus; assay: Antibacterial activity against methicillin-resistant Staphylococcus aureus isolate 8162 after 18 hrs by broth microdilution method; conditions: isolate 8162, 18 h
[22] = test system: Staphylococcus aureus; assay: Antibacterial activity against methicillin-resistant Staphylococcus aureus isolate 1428 after 18 hrs by broth microdilution method; conditions: isolate 1428, 18 h
[23] = test system: Staphylococcus aureus; assay: Antibacterial activity against methicillin-resistant Staphylococcus aureus isolate 8179 after 18 hrs by broth microdilution method; conditions: isolate 8179, 18 h
[24] = test system: Staphylococcus aureus; assay: Potency index, ratio of methicillin MIC to test compound MIC for methicillin-resistant Staphylococcus aureus ATCC 33591
[25] = test system: Staphylococcus aureus; assay: Antibacterial activity against methicillin-resistant Staphylococcus aureus isolate 1947 after 18 hrs by broth microdilution method; conditions: isolate 1947, 18 h
[26] = test system: Staphylococcus aureus; assay: Bactericidal activity against methicillin-resistant Staphylococcus aureus ATCC BAA41 after 18 hrs by broth microdilution method; conditions: ATCC BAA41, 18 h
[27] = test system: Staphylococcus aureus; assay: Potency index, ratio of berberine MIC to test compound MIC for Staphylococcus aureus ATCC 29213
[28] = test system: Staphylococcus aureus; assay: Antibacterial activity against methicillin-resistant Staphylococcus aureus isolate 7917 after 18 hrs by broth microdilution method; conditions: isolate 7917, 18 h
[29] = test system: Staphylococcus aureus; assay: Antibacterial activity against methicillin-resistant Staphylococcus aureus isolate 3170 after 18 hrs by broth microdilution method; conditions: isolate 3170, 18 h
[30] = test system: Staphylococcus aureus; assay: Antibacterial activity against methicillin-resistant Staphylococcus aureus isolate 1610 after 18 hrs by broth microdilution method; conditions: isolate 1610, 18 h
[31] = test system: Staphylococcus aureus; assay: Antibacterial activity against methicillin-resistant Staphylococcus aureus ATCC BAA41 after 18 hrs by broth microdilution method; conditions: ATCC BAA41, 18 h
[32] = test system: Staphylococcus aureus; assay: Antibacterial activity against methicillin-resistant Staphylococcus aureus isolate 7971 after 18 hrs by broth microdilution method; conditions: isolate 7971, 18 h
[33] = test system: Staphylococcus aureus; assay: Antibacterial activity against methicillin-resistant Staphylococcus aureus isolate 2491 after 18 hrs by broth microdilution method; conditions: isolate 2491, 18 h
[34] = test system: Staphylococcus aureus; assay: Antibacterial activity against methicillin-resistant Staphylococcus aureus ATCC 43300 after 18 hrs by broth microdilution method; conditions: ATCC 43300, 18 h
[35] = test system: Staphylococcus aureus; assay: Bactericidal activity against methicillin-resistant Staphylococcus aureus ATCC 43300 after 18 hrs by broth microdilution method; conditions: ATCC 43300, 18 h
[36] = test system: Staphylococcus aureus; assay: Antibacterial activity against methicillin-resistant Staphylococcus aureus isolate 5239 after 18 hrs by broth microdilution method; conditions: isolate 5239, 18 h
[37] = test system: Staphylococcus aureus; assay: Antibacterial activity against methicillin-resistant Staphylococcus aureus isolate 2158 after 18 hrs by broth microdilution method; conditions: isolate 2158, 18 h
[38] = test system: Staphylococcus aureus; assay: Antibacterial activity against Staphylococcus aureus ATCC 29213 after 18 hrs by broth microdilution method; conditions: ATCC 29213, 18 h

SMILES: FC(F)(F)c1ccc(CN2CCCN(CCc3cc(-c4cccs4)nc(-c4ccncc4)n3)CC2)cc1
- MIC90 [1]: 4 mg/L (≈ 7.64 µM)
- MIC90 [2]: 4 mg/L (≈ 7.64 µM)
- MIC90 [3]: 4 mg/L (≈ 7.64 µM)
- MIC90 [4]: 4 mg/L (≈ 7.64 µM)
- MIC90 [5]: 4 mg/L (≈ 7.64 µM)
- Ratio [6]: 2
- MIC90 [7]: 4 mg/L (≈ 7.64 µM)
- Ratio [8]: >100
- MIC90 [9]: 8 mg/L (≈ 15.3 µM)
- MIC90 [10]: 4 mg/L (≈ 7.64 µM)
- MIC90 [11]: 4 mg/L (≈ 7.64 µM)
- MBC [12]: 8 mg/L (≈ 15.3 µM)
- MIC90 [13]: 4 mg/L (≈ 7.64 µM)
- MIC90 [14]: 4 mg/L (≈ 7.64 µM)
- MIC90 [15]: 4 mg/L (≈ 7.64 µM)
- MIC90 [16]: 4 mg/L (≈ 7.64 µM)
- Ratio [17]: >100
- MIC90 [18]: 4 mg/L (≈ 7.64 µM)
- MIC90 [19]: 4 mg/L (≈ 7.64 µM)
- MIC90 [20]: 4 mg/L (≈ 7.64 µM)
- MIC90 [21]: 4 mg/L (≈ 7.64 µM)
- MIC90 [22]: 4 mg/L (≈ 7.64 µM)
- MIC90 [23]: 4 mg/L (≈ 7.64 µM)
- Ratio [24]: >100
- MIC90 [25]: 4 mg/L (≈ 7.64 µM)
- MBC [26]: 4 mg/L (≈ 7.64 µM)
- Ratio [27]: 50 - 100
- MIC90 [28]: 4 mg/L (≈ 7.64 µM)
- MIC90 [29]: 8 mg/L (≈ 15.3 µM)
- MIC90 [30]: 8 mg/L (≈ 15.3 µM)
- MIC90 [31]: 4 mg/L (≈ 7.64 µM)
- MIC90 [32]: 4 mg/L (≈ 7.64 µM)
- MIC90 [33]: 8 mg/L (≈ 15.3 µM)
- MIC90 [34]: 4 mg/L (≈ 7.64 µM)
- MBC [35]: 8 mg/L (≈ 15.3 µM)
- MIC90 [36]: 4 mg/L (≈ 7.64 µM)
- MIC90 [37]: 4 mg/L (≈ 7.64 µM)
- MIC90 [38]: 4 mg/L (≈ 7.64 µM)

SMILES: CN[C@H](CC(C)C)C(=O)N[C@H]1C(=O)N[C@@H](CC(N)=O)C(=O)N[C@H]2C(=O)N[C@H]3C(=O)N[C@H](C(=O)N[C@H](C(=O)O)c4cc(O)cc(O)c4-c4cc3ccc4O)[C@H](O)c3ccc(c(Cl)c3)Oc3cc2cc(c3O[C@@H]2O[C@H](CO)[C@@H](O)[C@H](O)[C@H]2O[C@H]2C[C@](C)(N)[C@H](O)[C@H](C)O2)Oc2ccc(cc2Cl)[C@H]1O [VANCOMYCIN]
- MIC90 [1]: 1 mg/L (≈ 0.69 µM)
- MIC90 [2]: > 64 mg/L
- MIC90 [3]: 2 mg/L (≈ 1.38 µM)
- MIC90 [4]: 2 mg/L (≈ 1.38 µM)
- MIC90 [5]: 1 mg/L (≈ 0.69 µM)
- MIC90 [7]: 1 mg/L (≈ 0.69 µM)
- MIC90 [9]: 1 mg/L (≈ 0.69 µM)
- MIC90 [10]: 1 mg/L (≈ 0.69 µM)
- MIC90 [11]: 2 mg/L (≈ 1.38 µM)
- MIC90 [13]: 1 mg/L (≈ 0.69 µM)
- MIC90 [14]: 1 mg/L (≈ 0.69 µM)
- MIC90 [15]: 1 mg/L (≈ 0.69 µM)
- MIC90 [16]: 2 mg/L (≈ 1.38 µM)
- MIC90 [18]: 0.5 mg/L (≈ 0.345 µM)
- MIC90 [19]: 1 mg/L (≈ 0.69 µM)
- MIC90 [20]: 2 mg/L (≈ 1.38 µM)
- MIC90 [21]: 1 mg/L (≈ 0.69 µM)
- MIC90 [22]: 0.5 mg/L (≈ 0.345 µM)
- MIC90 [23]: 1 mg/L (≈ 0.69 µM)
- MIC90 [25]: 2 mg/L (≈ 1.38 µM)
- MIC90 [28]: 1 mg/L (≈ 0.69 µM)
- MIC90 [29]: 2 mg/L (≈ 1.38 µM)
- MIC90 [30]: 1 mg/L (≈ 0.69 µM)
- MIC90 [31]: 2 mg/L (≈ 1.38 µM)
- MIC90 [32]: 1 mg/L (≈ 0.69 µM)
- MIC90 [33]: 2 mg/L (≈ 1.38 µM)
- MIC90 [34]: 2 mg/L (≈ 1.38 µM)
- MIC90 [36]: 1 mg/L (≈ 0.69 µM)
- MIC90 [37]: 1 mg/L (≈ 0.69 µM)
- MIC90 [38]: 1 mg/L (≈ 0.69 µM)
